Assays:
[1] = tested on: attachment of Jurkat cells to ICAM-1; assay: T-cell adhesion assay using Jurkat cells; type: cell-based, human
Protocol: A reported LFA-1 antagonist was used as the positive control.
Jurkat cells were labeled with an 8 μM solution of BCECF-AM (2′,7′-bis-(2-carboxyethyl)-5-(and -6)-carboxyfluorescein) in growth media at room temperature for 15 minutes. […] Non-adherent cells were removed by washing and centrifugation at 100 g for 1 minute. Adherent cells were determined as adherent fluorescent units on a fluorescent plate reader.

[2] = in vivo
[3] = Single dose ocular and IV ADME with [^14C]-Compound 12 in rats, quantitative whole body autoradiography; type: in vivo, rat; details: for Compound 12 Concentration, Aqueous humor / Compound 12 Concentration, Conjunctiva (bulbar) / Compound 12 Concentration, Conjunctiva (palpebral) / Compound 12 Concentration, Cornea / Compound 12 Concentration, Iris-ciliary body / Compound 12 Concentration, Lens / Compound 12 Concentration, Optic Nerve / Compound 12 Concentration, Retina and Choroid (with RPE) / Compound 12 Concentration, Sclera / Compound 12 Concentration, Vitreous Humor: ocular dosing in rats; for excretion in feces, of the administered radioactivity: 0 to 168 hours postdose
Protocol: Quantitative whole body […] assessments were performed.
Little or no drug is observed in systemic distribution.

[4] = Pilot mini-pig dermal study; type: in vivo; details: minipig, plasma, topical, 10 mg/cm^2 of 1% formulation over approximately 50 cm^2; all groups; below LLOQ; read-out: Plasma levels
From the text: (§1) One pig/dose formulation was used. In-life PK analysis was completed.

mini-pigs = assay: Pilot mini-pig dermal study; type: in vivo; details: DMSO, gel, ointment, lotion at 1%; TID 7 days, 10 mg/cm^2 on about 50 cm^2
From the text: as §1

[5] = Plasma PK after a single topical ocular instillation (dogs and rabbits)
in vivo [6] = details: dog, iv
[7] = Acute toxicity, single dose IV in rats; details: rat, in vivo
Protocol: 4. Acute Toxicity Studies: For single dose IV in rats, the no observable adverse effect level (NOAEL) was 10 mg/kg IV. For escalating single dose IV and 7-day repeated dose with TK (toxicokinetics) in dogs, the NOAEL was 10 mg/kg IV. For single dose ocular tolerance in rabbits, the NOAEL was 3.5 mg/eye/3× per day (10%).

[8] = tested on: Chinese hamster ovary (CHO) cells; assay: In vitro chromosomal aberration assay in CHO cells; type: cell-based; details: with and without metabolic activation, except single toxic dose 3500 μg/mL, 3-hour
From the text: The biological relevance of this response is equivocal due to cytotoxicity.

rabbits = assay: Single dose ocular tolerance in rabbits; type: in vivo, rabbit; details: (10%)
[9] = tested on: SEB stimulated IL-2 release in whole human blood; assay: cells; type: cell-based; details: read-out: IC50 inhibition of SEB stimulated IL-2 release in whole human blood
in vivo [10] = details: rat, iv
CD-1 (ICR) BR mice = assay: In vivo mouse bone marrow micronucleus assay; details: repeated IV administrations
in vivo [11] = details: topical or ocular
[12] = 0.5 hour postdose, ocular 1 mg/eye
[13] = 0.5 hour postdose, ocular 1 mg/eye, male Sprague Dawley, above upper limit of quantification
[14] = 2 hours postdose, ocular 1 mg/eye
[15] = 8 hours postdose, ocular 1 mg/eye
[16] = 24 hours postdose, ocular 1 mg/eye
[17] = in vivo, topical or ocular, 1.05 mg

CS(=O)(=O)c1cccc(C[C@H](NC(=O)c2c(Cl)cc3c(c2Cl)CCN(C(=O)c2ccc4ccoc4c2)C3)C(=O)O)c1 [Compound 12]
Jurkat cell attachment to ICAM-1 ([1]; 30 min preincubation, 1 h at 37° C.): inhibition of Jurkat cell attachment with increasing dose | dose response curve and IC50, Jurkat cell attachment ([1]; vs positive control): comparable to that of the known direct competitive LFA-1 antagonist | ocular dose absorbed into the systemic circulation [2]: 6.9-32% | Compound 12 Concentration, Aqueous humor ([3]; 0.5 hour after administration): 1770 ng Equivalents [^14C]-Compound 12/g tissue | Compound 12 Concentration, Conjunctiva (bulbar) ([3]; 0.5 hour after administration): 31500 ng Equivalents [^14C]-Compound 12/g tissue | Compound 12 Concentration, Conjunctiva (palpebral) ([3]; 0.5 hour after administration): 26300 ng Equivalents [^14C]-Compound 12/g tissue | Compound 12 Concentration, Cornea ([3]; 0.5 hour after administration): 17150 ng Equivalents [^14C]-Compound 12/g tissue | Compound 12 Concentration, Iris-ciliary body ([3]; 0.5 hour after administration): 17550 ng Equivalents [^14C]-Compound 12/g tissue | Compound 12 Concentration, Lens ([3]; 0.5 hour after administration): 38.8 ng Equivalents [^14C]-Compound 12/g tissue | Compound 12 Concentration, Optic Nerve ([3]; 0.5 hour after administration): 796 ng Equivalents [^14C]-Compound 12/g tissue | Compound 12 Concentration, Retina and Choroid (with RPE) ([3]; 0.5 hour after administration): 510 ng Equivalents [^14C]-Compound 12/g tissue | Compound 12 Concentration, Sclera ([3]; 0.5 hour after administration): 2750 ng Equivalents [^14C]-Compound 12/g tissue | Compound 12 Concentration, Vitreous Humor ([3]; 0.5 hour after administration): 1330 ng Equivalents [^14C]-Compound 12/g tissue | radioactivity concentration, eye [3, 12]: 18100 ng equivalents [^14C]-Compound 12/g | radioactivity concentration, kidney [3, 12]: 151 ng equivalents [^14C]-Compound 12/g | radioactivity concentration, liver [3, 12]: 272 ng equivalents [^14C]-Compound 12/g | radioactivity concentration, uveal tract [3, 12]: 9330 ng equivalents [^14C]-Compound 12/g | radioactivity concentration, esophageal contents [3, 13]: 399000 ng equivalents [^14C]-Compound 12/g | radioactivity concentration, nasal turbinates [3, 13]: 352000 ng equivalents [^14C]-Compound 12/g | radioactivity concentration, small intestinal contents [3, 13]: 349000 ng equivalents [^14C]-Compound 12/g | decline of radioactivity concentration, esophageal contents [3, 14]: ~100 fold | decline of radioactivity concentration, esophagus [3, 14]: approximately 50 fold | Compound 12 Concentration, Aqueous humor ([3]; 4.0 hours after administration): 116 ng Equivalents [^14C]-Compound 12/g tissue | Compound 12 Concentration, Conjunctiva (bulbar) ([3]; 4.0 hours after administration): 4480 ng Equivalents [^14C]-Compound 12/g tissue | Compound 12 Concentration, Conjunctiva (palpebral) ([3]; 4.0 hours after administration): 21830 ng Equivalents [^14C]-Compound 12/g tissue | Compound 12 Concentration, Cornea ([3]; 4.0 hours after administration): 1346 ng Equivalents [^14C]-Compound 12/g tissue | Compound 12 Concentration, Iris-ciliary body ([3]; 4.0 hours after administration): 500 ng Equivalents [^14C]-Compound 12/g tissue | Compound 12 Concentration, Lens ([3]; 4.0 hours after administration): 9.69 ng Equivalents [^14C]-Compound 12/g tissue | Compound 12 Concentration, Optic Nerve ([3]; 4.0 hours after administration): 0 ng Equivalents [^14C]-Compound 12/g tissue | Compound 12 Concentration, Retina and Choroid (with RPE) ([3]; 4.0 hours after administration): 46.7 ng Equivalents [^14C]-Compound 12/g tissue | Compound 12 Concentration, Sclera ([3]; 4.0 hours after administration): 387 ng Equivalents [^14C]-Compound 12/g tissue | Compound 12 Concentration, Vitreous Humor ([3]; 4.0 hours after administration): 183 ng Equivalents [^14C]-Compound 12/g tissue | radioactivity concentration, cecum contents [3, 15]: 57600 ng equivalents [^14C]-Compound 12/g | radioactivity concentration, large intestinal contents [3, 15]: 133000 ng equivalents [^14C]-Compound 12/g | radioactivity concentration, uveal tract ([3]; 12 hours postdose, ocular 1 mg/eye): 610 ng equivalents [^14C]-Compound 12/g | radioactivity concentration, cecum contents [3, 16]: 5870 ng equivalents [^14C]-Compound 12/g | radioactivity concentration, large intestinal contents [3, 16]: 18000 ng equivalents [^14C]-Compound 12/g | excretion in feces, of the administered radioactivity ([3]; IV administration 10 mg/kg): ~95% | excretion in feces, of the administered radioactivity ([3]; ocular administration 1 mg/eye): approximately 60% | Urinary excretion, of the administered radioactivity ([3]; ocular or IV): up to 2% | binding to melanin ([3]; pigmented vs albino rats): did not preferentially bind to melanin | levels in conjunctiva/cornea ([3]; rat, for 16 hrs): > 100 nM | metabolites in pooled plasma, urine and fecal homogenates ([3]; up to 168 hrs, topical ocular or IV dose): no metabolites were isolated | concentration at 7 days [4]: < 0.5 ng/mL | toxicity, dermal formulations (mini-pigs): No toxicity | AUC [5, 17]: 22.9 ± 10.1 ng·h/mL | Cmax [5, 17]: 38.9 ± 19.7 ng/mL | time of decline of plasma concentration to baseline levels ([5]; topical ocular instillation): about 4 hours | time of maximum plasma concentration post-dose ([5]; topical ocular instillation): about 0.25 hrs | NOAEL at 4 week (in vivo [6]): 10 mg/kg | NOAEL [7]: 10 mg/kg | structural chromosomal aberrations in CHO cells [8]: negative | NOAEL (rabbits): 3.5 mg/eye/3× per day | IC50 [9]: 69 nM | NOAEL at 13 week (in vivo [10]): 30 mg/kg | mouse bone marrow micronucleus assay (CD-1 (ICR) BR mice): negative | AUC (in vivo [11]; 0.105 mg): 5.19 ± 5.39 ng·h/mL | Cmax (in vivo [11]; 0.105 mg): 11.7 ± 8.8 ng/mL | AUC (in vivo [11]; 0.35 mg): 7.35 ± 1.52 ng·h/mL | Cmax (in vivo [11]; 0.35 mg): 13.1 ± 2.12 ng/mL

Reference: patent US20090258069A1, “Delivery of LFA-1 antagonists to the gastrointestinal system” (priority 2008, published 2009)
